Assay: Study HDP-CDV-201: safety and tolerability (adverse events, laboratory abnormalities, discontinuations)
Format: in vivo, human (adult allogeneic HSCT recipients)
Conditions: for Subjects with Neutrophils <0.5 GI/L / Subjects with Neutrophils <1.0-0.5 GI/L / Subjects with Neutrophils <1.5-1 GI/L / Subjects with Neutrophils <LLN-1.5 GI/L / Subjects with Platelets <25 GI/L / Subjects with Platelets <50-25 GI/L / Subjects with Platelets <75-50 GI/L / Subjects with Platelets <LLN-75 GI/L / Subjects with Serum Creatinine >1 × ULN-[…] ULN / Subjects with Serum Creatinine >3 × ULN-6 × ULN / Subjects with Serum Creatinine >6 × ULN / Subjects with Serum Creatinine >[…] ULN-3 × ULN / Subjects with WBC <1 GI/L / Subjects with WBC <2-1 GI/L / Subjects with WBC <3-2 GI/L / Subjects with WBC <LLN-3 GI/L / Subjects with Hemoglobin <6.5 g/dL / Subjects with Hemoglobin <8-6.5 g/dL / Subjects with Hemoglobin <10-8 g/dL / Subjects with Hemoglobin <LLN-10 g/dL: any time during therapy; for Subjects Receiving Aldesleukin / Subjects Receiving Blood and Related Products / Subjects Receiving Blood, Whole / Subjects Receiving Filgrastim / Subjects Receiving Granulocyte Colony Stimulating Factor / Subjects Receiving Pegfilgrastim / Subjects Receiving Platelets / Subjects Receiving Red Blood Cells / Subjects Receiving Red Blood Cells, Concentrated / Subjects Receiving Sargramostim: during the Treatment Period; for Cause of death: individual subjects who died
Experimental: Clinical Studies of HDP-CDV were performed and described in detail in the following Examples. For example, HDP-CDV-201 is a placebo-controlled, dose-escalating trial in HSCT CMV (R+) recipients, evaluating the ability of HDP-CDV to prevent or control CMV infection was carried out. Five cohorts were established in which participants or subjects received either placebo or the HDP-CDV orally, in doses ranging from 40 mg weekly (QW) to 200 mg twice weekly (BIW). Subjects who were post-HSCT were enrolled at the time of engraftment and randomized to HDP-CDV or placebo (3 to 1 ratio) and received blinded therapy until approximately 100 day post-transplantation. HDP-CDV doses were 40 mg QW, 100 mg QW, 200 mg QW, 200 mg BIW and 100 mg BIW. Escalation to the next dose was decided by the data monitoring committee after review of the safety data from the previous Cohort. Subjects who developed CMV disease or CMV infection requiring pre-emptive therapy with local standard of care were discontinued from blinded therapy and followed for 4 weeks. Subjects who completed treatment with blinded therapy were followed for 8 weeks post-therapy.
Data from Study HDP-CDV-201 also provided characterization of the safety and tolerability profile of HDP-CDV when administered for the prevention or control of CMV infection in high risk (R^+) post-HSCT adult subjects.
The Safety population (SAFETY) included all randomized subjects who took at least one dose of study treatment. This population was used to summarize safety outcomes based on the treatment actually received, in cases where a subject was treated contrary to the randomization schedule.
The safety and tolerability profile of HDP-CDV, including subject demographics and Baseline characteristics; the AE profile; and laboratory abnormalities of interest were analyzed in the cohorts followed in this investigation.
Subjects completing the treatment period received a full course of study medication; those completing the entire study attended visits through 8 weeks of follow up. Subjects who discontinued treatment may have done so for protocol specified reasons (e.g. development of clinically significant CMV infection requiring preemptive treatment with excluded anti-CMV medications) or for other reasons (e.g., withdrawal, adverse events, loss to follow-up). The disposition of subjects in Study HDP-CDV-201 during the double-blind, placebo-controlled treatment period (through Week 11) is listed by dosing Cohort in TABLE 23.
Adverse events were examined by severity to ensure that all safety signals were identified in this study population. Because of the frequency of events in HSCT recipients, particular attention was given to evaluation of Grade 3 […], 4 (severe), and 5 (fatal) adverse events.
Only those preferred terms for which at least one Grade 3 or higher event was experienced in any treatment group are listed. Cytomegalovirus-related AEs are excluded from this analysis.
HDP-CDV is a lipid conjugate of CDV. Because CDV is known to have adverse effects on renal function and bone marrow, decreased GFR and persistent neutropenia were identified as AEs of special interest. Key renal and hematological (TABLE 30) laboratory parameters were measured and listed below by Study HDP-CDV-201 treatment groups. TABLE 30 includes abnormal levels of serum creatinine, neutrophils, platelets, WBCs, and hemoglobin and includes data at Screening and during the treatment period.
A common metric for unit based dosing of medications is by weight (mg/kg). When the distribution of weights was examined for all subjects participating in the study, the median was 78 kg and the lower 25th percentile weight was approximately 65 kg, which translates to a cut-off of ˜3 mg/kg for a 200 mg total weekly dose. Based upon this approach, a cut-off of 3 mg/kg was used to assess the frequency of diarrhea and associated GI AEs reported for the subjects in Cohorts 3 or 4a (TABLE 40).

CCCCCCCCCCCCCCCCOCCCOP(=O)(O)COC(CO)Cn1ccc(N)nc1=O (stereo not shown) [HDP-CDV]
Subjects with Neutrophils <0.5 GI/L (100 mg QW): 3 (11.1%) | Subjects with Neutrophils <1.0-0.5 GI/L (100 mg QW): 2 (7.4%) | Subjects with Neutrophils <1.5-1 GI/L (100 mg QW): 9 (33.3%) | Subjects with Neutrophils <LLN-1.5 GI/L (100 mg QW): 1 (3.7%) | Subjects with Platelets <25 GI/L (100 mg QW): 4 (14.8%) | Subjects with Platelets <50-25 GI/L (100 mg QW): 6 (22.2%) | Subjects with Platelets <75-50 GI/L (100 mg QW): 6 (22.2%) | Subjects with Platelets <LLN-75 GI/L (100 mg QW): 7 (25.9%) | Subjects with Serum Creatinine >1 × ULN-[…] ULN (100 mg QW): 16 (59.3%) | Subjects with Serum Creatinine >3 × ULN-6 × ULN (100 mg QW): 0 | Subjects with Serum Creatinine >6 × ULN (100 mg QW): 0 | Subjects with Serum Creatinine >[…] ULN-3 × ULN (100 mg QW): 5 (18.5%) | Subjects with WBC <1 GI/L (100 mg QW): 3 (11.1%) | Subjects with WBC <2-1 GI/L (100 mg QW): 4 (14.8%) | Subjects with WBC <3-2 GI/L (100 mg QW): 6 (22.2%) | Subjects with WBC <LLN-3 GI/L (100 mg QW): 4 (14.8%) | Subjects with Hemoglobin <6.5 g/dL (200 mg BIW): 0 | Subjects with Hemoglobin <8-6.5 g/dL (200 mg BIW): 2 (7.1%) | Subjects with Hemoglobin <10-8 g/dL (200 mg BIW): 12 (42.9%) | Subjects with Hemoglobin <LLN-10 g/dL (200 mg BIW): 12 (42.9%) | Subjects with Neutrophils <0.5 GI/L (200 mg BIW): 0 | Subjects with Neutrophils <1.0-0.5 GI/L (200 mg BIW): 4 (14.3%) | Subjects with Neutrophils <1.5-1 GI/L (200 mg BIW): 7 (25.0%) | Subjects with Neutrophils <LLN-1.5 GI/L (200 mg BIW): 3 (10.7%) | Subjects with Platelets <25 GI/L (200 mg BIW): 8 (28.6%) | Subjects with Platelets <50-25 GI/L (200 mg BIW): 8 (28.6%) | Subjects with Platelets <75-50 GI/L (200 mg BIW): 2 (7.1%) | Subjects with Platelets <LLN-75 GI/L (200 mg BIW): 6 (21.4%) | Subjects with Serum Creatinine >1 × ULN-[…] ULN (200 mg BIW): 11 (37.9%) | Subjects with Serum Creatinine >3 × ULN-6 × ULN (200 mg BIW): 0 | Subjects with Serum Creatinine >6 × ULN (200 mg BIW): 0 | Subjects with Serum Creatinine >[…] ULN-3 × ULN (200 mg BIW): 1 (3.4%) | Subjects with WBC <1 GI/L (200 mg BIW): 2 (7.1%) | Subjects with WBC <2-1 GI/L (200 mg BIW): 5 (17.9%) | Subjects with WBC <3-2 GI/L (200 mg BIW): 9 (32.1%) | Subjects with WBC <LLN-3 GI/L (200 mg BIW): 3 (10.7%) | Subjects with Hemoglobin <6.5 g/dL (200 mg QW): 0 | Subjects with Hemoglobin <8-6.5 g/dL (200 mg QW): 5 (13.2%) | Subjects with Hemoglobin <10-8 g/dL (200 mg QW): 19 (50.0%) | Subjects with Hemoglobin <LLN-10 g/dL (200 mg QW): 13 (34.2%) | Subjects with Neutrophils <0.5 GI/L (200 mg QW): 2 (5.3%) | Subjects with Neutrophils <1.0-0.5 GI/L (200 mg QW): 7 (18.4%) | Subjects with Neutrophils <1.5-1 GI/L (200 mg QW): 11 (28.9%) | Subjects with Neutrophils <LLN-1.5 GI/L (200 mg QW): 1 (2.6%) | Subjects with Platelets <25 GI/L (200 mg QW): 7 (18.4%) | Subjects with Platelets <50-25 GI/L (200 mg QW): 13 (34.2%) | Subjects with Platelets <75-50 GI/L (200 mg QW): 7 (18.4%) | Subjects with Platelets <LLN-75 GI/L (200 mg QW): 7 (18.4%) | Subjects with Serum Creatinine >1 × ULN-[…] ULN (200 mg QW): 16 (42.1%) | Subjects with Serum Creatinine >3 × ULN-6 × ULN (200 mg QW): 0 | Subjects with Serum Creatinine >6 × ULN (200 mg QW): 0 | Subjects with Serum Creatinine >[…] ULN-3 × ULN (200 mg QW): 2 (5.3%) | Subjects with WBC <1 GI/L (200 mg QW): 1 (2.6%) | Subjects with WBC <2-1 GI/L (200 mg QW): 13 (34.2%) | Subjects with WBC <3-2 GI/L (200 mg QW): 7 (18.4%) | Subjects with WBC <LLN-3 GI/L (200 mg QW): 6 (15.8%) | drug induced liver injury (DILI) (course of the study): No case of drug induced liver injury (DILI) clearly attributable to HDP-CDV | Subjects Receiving Aldesleukin (40 mg QW): 0 | Subjects Receiving Blood and Related Products (40 mg QW): 1 (4.0%) | Subjects Receiving Blood, Whole (40 mg QW): 0 | Subjects Receiving Filgrastim (40 mg QW): 4 (16.0%) | Subjects Receiving Granulocyte Colony Stimulating Factor (40 mg QW): 0 | Subjects Receiving Pegfilgrastim (40 mg QW): 0 | Subjects Receiving Platelets (40 mg QW): 5 (20.0%) | Subjects Receiving Red Blood Cells (40 mg QW): 0 | Subjects Receiving Red Blood Cells, Concentrated (40 mg QW): 2 (8.0%) | Subjects Receiving Sargramostim (40 mg QW): 0 | Subjects Receiving Aldesleukin (100 mg BIW): 0 | Subjects Receiving Blood and Related Products (100 mg BIW): 0 | Subjects Receiving Blood, Whole (100 mg BIW): 0 | Subjects Receiving Filgrastim (100 mg BIW): 11 (22.0%) | Subjects Receiving Granulocyte Colony Stimulating Factor (100 mg BIW): 0 | Subjects Receiving Pegfilgrastim (100 mg BIW): 2 (4.0%) | Subjects Receiving Platelets (100 mg BIW): 6 (12.0%) | Subjects Receiving Red Blood Cells (100 mg BIW): 3 (6.0%) | Subjects Receiving Red Blood Cells, Concentrated (100 mg BIW): 6 (12.0%) | Subjects Receiving Sargramostim (100 mg BIW): 0 | Subjects Receiving Aldesleukin (100 mg QW): 0 | Subjects Receiving Blood and Related Products (100 mg QW): 0 | Subjects Receiving Blood, Whole (100 mg QW): 1 (3.7%) | Subjects Receiving Filgrastim (100 mg QW): 4 (14.8%) | Subjects Receiving Granulocyte Colony Stimulating Factor (100 mg QW): 0 | Subjects Receiving Pegfilgrastim (100 mg QW): 0 | Subjects Receiving Platelets (100 mg QW): 3 (11.1%) | Subjects Receiving Red Blood Cells (100 mg QW): 2 (7.4%) | Subjects Receiving Red Blood Cells, Concentrated (100 mg QW): 3 (11.1%) | Subjects Receiving Sargramostim (100 mg QW): 0 | Subjects Receiving Aldesleukin (200 mg BIW): 0 | Subjects Receiving Blood and Related Products (200 mg BIW): 0 | Subjects Receiving Blood, Whole (200 mg BIW): 0 | Subjects Receiving Filgrastim (200 mg BIW): 5 (16.7%) | Subjects Receiving Granulocyte Colony Stimulating Factor (200 mg BIW): 1 (3.3%) | Subjects Receiving Pegfilgrastim (200 mg BIW): 1 (3.3%) | Subjects Receiving Platelets (200 mg BIW): 6 (20.0%) | Subjects Receiving Red Blood Cells (200 mg BIW): 4 (13.3%) | Subjects Receiving Red Blood Cells, Concentrated (200 mg BIW): 5 (16.7%) | Subjects Receiving Sargramostim (200 mg BIW): 0 | Subjects Receiving Aldesleukin (200 mg QW): 0 | Subjects Receiving Blood and Related Products (200 mg QW): 0 | Subjects Receiving Blood, Whole (200 mg QW): 0 | Subjects Receiving Filgrastim (200 mg QW): 11 (28.2%) | Subjects Receiving Granulocyte Colony Stimulating Factor (200 mg QW): 1 (2.6%) | Subjects Receiving Pegfilgrastim (200 mg QW): 1 (2.6%) | Subjects Receiving Platelets (200 mg QW): 6 (15.4%) | Subjects Receiving Red Blood Cells (200 mg QW): 3 (7.7%) | Subjects Receiving Red Blood Cells, Concentrated (200 mg QW): 6 (15.4%) | Subjects Receiving Sargramostim (200 mg QW): 1 (2.6%) | relation of deaths to study drug (entire study duration): None of the deaths were considered by the Investigators as related to HDP-CDV | Cause of death (dose 100 mg BIW): Gut GVHD | Cause of death (dose 200 mg BIW): GI bleed | average increase in ALT from Baseline at time of maximum ALT increase (range across cohorts): 1.53 to 3.55 fold | nephrotoxicity or myelotoxicity (regardless of dose and dosing frequency): no indication of nephrotoxicity or myelotoxicity

From patent publication US20140303092A1 (CHIMERIX, INC., priority 2011, published 2014)
